Measured values taken from PMC4331664, “Allosteric regulation of the partitioning of glucose-1-phosphate between glycogen and trehalose biosynthesis in Mycobacterium tuberculosis” (Biochimica et Biophysica Acta. General Subjects, 2015).
Where two headings read alike, the source gives them in different places.

Experiments:
[1] = test system: Nc1ncnc2c1ncn2[C@@H]1O[C@H](COP(=O)(O)OP(=O)(O)O[C@H]2O[C@H](CO)[C@@H](O)[C@H](O)[C@H]2O)[C@@H](O)[C@H]1O; experiment: purified protein; settings: pH 8.0
[2] = target: T1, ADP-Glc PPase (ADP-glucose pyrophosphorylase) (Mycobacterium tuberculosis, UniProt P9WN43); experiment: biochemical
T1 construct: gene glgC
T1 sequence (P9WN43 whole entry): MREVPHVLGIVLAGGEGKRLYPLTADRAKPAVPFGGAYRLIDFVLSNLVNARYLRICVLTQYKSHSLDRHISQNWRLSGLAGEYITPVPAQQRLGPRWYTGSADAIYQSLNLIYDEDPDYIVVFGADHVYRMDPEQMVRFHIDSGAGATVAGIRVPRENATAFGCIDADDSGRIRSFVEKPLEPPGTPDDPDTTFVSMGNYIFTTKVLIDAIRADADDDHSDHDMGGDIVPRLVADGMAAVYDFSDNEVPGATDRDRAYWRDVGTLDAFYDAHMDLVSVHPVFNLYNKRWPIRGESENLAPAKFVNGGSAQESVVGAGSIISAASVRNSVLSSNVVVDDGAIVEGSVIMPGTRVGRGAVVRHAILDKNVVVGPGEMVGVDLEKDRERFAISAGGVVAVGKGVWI

[3] = target: T1, ADP-Glc PPase (ADP-glucose pyrophosphorylase); settings: read-out: A0.5
[4] = target: T2, Tre-6P Sase (trehalose-6-phosphate synthase) (Mycobacterium tuberculosis, UniProt P9WN11); settings: read-out: A0.5
T2 construct: gene otsA
T2 sequence (P9WN11 whole entry): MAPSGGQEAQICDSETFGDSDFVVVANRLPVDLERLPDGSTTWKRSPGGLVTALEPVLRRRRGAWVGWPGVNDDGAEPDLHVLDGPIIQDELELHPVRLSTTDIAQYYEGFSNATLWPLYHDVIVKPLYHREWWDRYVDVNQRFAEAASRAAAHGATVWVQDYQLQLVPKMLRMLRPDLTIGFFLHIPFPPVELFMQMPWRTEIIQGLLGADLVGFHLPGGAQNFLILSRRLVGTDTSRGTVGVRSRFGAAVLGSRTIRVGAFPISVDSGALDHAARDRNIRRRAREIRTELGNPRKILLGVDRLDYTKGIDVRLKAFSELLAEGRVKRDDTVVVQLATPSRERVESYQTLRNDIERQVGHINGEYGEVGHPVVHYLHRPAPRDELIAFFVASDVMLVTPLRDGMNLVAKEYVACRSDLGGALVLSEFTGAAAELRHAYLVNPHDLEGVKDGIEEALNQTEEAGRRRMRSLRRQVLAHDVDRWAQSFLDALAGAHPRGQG

[5] = target: T1, ADP-Glc PPase (ADP-glucose pyrophosphorylase)

“GSase (glycogen synthase) (Mycobacterium tuberculosis H37Rv)” was tested, and the K0.5 [1] was 3.95 ± 0.12 mM and the Vmax [1] was 0.21 µmol/min/mg.

Molecule `C=C(OP(=O)(O)O)C(=O)O` [PEP] has an EC50 [2] of 90 µM.

`O=P(O)(O)OC[C@H]1OC(O)[C@H](O)[C@@H](O)[C@@H]1O` (stereo partly drawn) [Glc-6P] showed an EC50 [3] of 870 µM.

For `O=P(O)(O)OC[C@H]1OC(O)(CO)[C@@H](O)[C@@H]1O` (stereo partly drawn) [Fru-6P], the EC50 [4] was 330 µM and the “fold activation at 5 mM” value [5] was 1.3 fold.
